Data on one substance can be found in US4239664A, “Anti-thrombogenic PVP-heparin polymer” (Research Corporation, priority 1978, dated 1980).

One data set concerns anticoagulant activity. Kind of data set: Biological (anticoagulant) activity of heparin and PVP-heparins. It counts as biochemical. As to conditions: Table I; heparin 100.
The conditions of data set [1]: in vivo; cited from earlier work.

With Heparin, the “Solubility in Water” value is 70 g/100 ml. Also, in the data set on anticoagulant activity, the “% Biological Activity” value is 100%. Also, in data set [1], the “dose dependence of half-life in man” value is recorded as “does not increase” and the “half-life of heparin in man” value is listed as 1 - 11/2.
